For this assay, the target named is T1, Mubs5s6 (Lactiplantibacillus plantarum, UniProt F9UP14).
T1 construct: gene lp_1643; last two (fifth and sixth) C-terminal Mub domains with spacers of the about 2200-residue Lp_1643 protein; 366 residues, about 40 kDa; expressed in E. coli as MBP fusion (82 kDa), MBP tag removable with Factor Xa
Briefly: biochemical assay (details in supplement). In kind it is binding. The following applies: site predicted by COACH (Asn42, Gly43, Asn224, Thr227, Asn228, Gln229); assay conditions only in supplement.

T1 sequence (F9UP14 entry or part of it): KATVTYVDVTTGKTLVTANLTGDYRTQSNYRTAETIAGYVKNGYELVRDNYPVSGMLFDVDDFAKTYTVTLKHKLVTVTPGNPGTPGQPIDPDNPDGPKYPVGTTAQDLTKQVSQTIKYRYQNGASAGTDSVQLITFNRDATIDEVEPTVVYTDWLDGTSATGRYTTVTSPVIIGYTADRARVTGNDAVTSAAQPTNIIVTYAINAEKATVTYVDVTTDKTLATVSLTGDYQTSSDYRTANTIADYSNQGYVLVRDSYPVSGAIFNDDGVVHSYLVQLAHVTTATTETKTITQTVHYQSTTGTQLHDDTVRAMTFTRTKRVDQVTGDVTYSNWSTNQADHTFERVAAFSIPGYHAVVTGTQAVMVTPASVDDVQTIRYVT

For the compound `OC[C@H]1OC(O)[C@H](O)[C@@H](O)[C@@H]1O` (stereo partly shown) [glucose], the “biochemical assay (details in supplement)” value is “We could also confirm the binding of calcium and glucose by Atomic Absorption Spectroscopy and biochemical assay”.

The record behind these values is PMC6155027, “Mechanistic insights into the host-microbe interaction and pathogen exclusion mediated by the Mucus-binding protein of Lactobacillus plantarum” (Scientific Reports, 2018).
